Assay type in all cases: cell-based, human
The test system of one experiment is phospho-ERK. The experiment is described as follows: steady-state phospho-ERK, Western immunoblotting. On the procedure: (§1) Unless otherwise indicated, cells were lysed 48 hours after being treated with lysis buffer, as described in Haklai, et al., supra. […] Protein bands were visualized by ECL and quantified by densitometry with Image Master VDS-CL (Amersham) using TINA 2.0 software (Ray Tests). To obtain reliable comparisons between replicated experiments for statistical analysis, a standardization procedure was used, in which the density of each given protein band as recorded with its specific Ab, was normalized. […] The standard average density was defined as 1.0, and each of the individually determined bands was related to this value. […] Actin cytoskeletal elements were labeled with rhodamine-phalloidin, and digital fluorescence images were collected on a Zeiss LSM 510 confocal microscope fitted with fluorescein and rhodamine filters, as described in Gana-Weisz, M., et al., supra.
(§2) Next, to determine whether down-regulation of active Ras by FTS was accompanied by inhibition of Ras signaling, the effect of FTS on steady-state levels of phospho-ERK, phospho-Akt, and RalA-GTP as read-outs of the three prominent Ras pathways, Ras/Raf/MEK/ERK, Ras/PI3K/Akt, and Ras/RalGEF/RalA, respectively, was examined. […]
In general terms: Immunoblotting shows a protein as a band on a membrane.

Experiment [1] has as its system ST88-14, 90-8, T265P21 and non-NF-1 STS26T cells. The experiment is described as follows: cell growth, photomicrographs of control and FTS-treated cells. The following applies: 50 μM FTS, two days. On the procedure:
The human NF-1 MPNST cell lines ST88-14, T265P21 and 90-8 and the non-NF-1 human MPNST cell line STS26T were obtained from Dr. Nancy Ratner. T265P21, 90-8, and ST88-14 cells were maintained in RPMI/15% fetal calf serum (FCS) medium and STS26T cells were maintained in DMEM/10% FCS, as described in Weisz, B., et al., supra. Cells were plated at a density of 1×10^6 cells per 10-cm plate for biochemical and immunoblotting assays, 2.5×10^3 cells/well in 24-well plates for cell-growth assays, or on glass cover slips (5×10^4 cells per 35-mm dish) for labeling of actin cytoskeletal elements. The cells were incubated for 24 hours, treated with the indicated concentration of FTS or with the vehicle (0.1% DMSO) (control) for the times specified in each of the experiments, and then subjected to the various assays as described below. The effect of FTS on cell growth was estimated by direct counting of cells collected from each well, as described in Weisz, B., et al., supra.
To determine the effects of the Ras inhibitor FTS on the growth rates of the NF-1 cell lines ST88-14, 90-8, T265P21 and the non-NF-1 STS26T cells, the cells were grown for two days in the absence and in the presence of 50 μM FTS, and then photomicrographed. […] Additionally, cells were grown for three days and then detached, collected, and counted as described in Methods to determine dose-dependent inhibition by FTS.

The test system of the next experiment is p120 RasGAP. The experiment is described as follows: p120 RasGAP amounts, immunoblot. The following applies: 75 μM FTS, 48 hours, NF-1 and non-NF-1 cells. How it is done: Unless otherwise indicated, cells were lysed 48 hours after being treated with lysis buffer, as described in Haklai, et al., supra. […] Protein bands were visualized by ECL and quantified by densitometry with Image Master VDS-CL (Amersham) using TINA 2.0 software (Ray Tests). To obtain reliable comparisons between replicated experiments for statistical analysis, a standardization procedure was used, in which the density of each given protein band as recorded with its specific Ab, was normalized. […] The standard average density was defined as 1.0, and each of the individually determined bands was related to this value. […] Actin cytoskeletal elements were labeled with rhodamine-phalloidin, and digital fluorescence images were collected on a Zeiss LSM 510 confocal microscope fitted with fluorescein and rhodamine filters, as described in Gana-Weisz, M., et al., supra. […]

In experiment [2] the test system is total ERK, total Akt, or total RalA. Briefly: total ERK, total Akt, total RalA, Western immunoblotting. The following applies: NF-1 cell lines. On the procedure:
as §1, §2

For `CC(C)=CCC/C(C)=C/CC/C(C)=C/CSc1ccccc1C(=O)O` [FTS, S-farnesylthiosalicylic acid], in the experiment on phospho-ERK (all NF-1 cell lines), the “steady-state phospho-ERK” value is given as “significant reduction”. Further, the “increase in phospho-ERK” value with phospho-ERK (non-NF-1 STS26T cells, steady state) was 10%-20%. Further, in experiment [1], the cell death result was “no significant cell death” and the “cell number (photomicrographs)” value was “drug-induced reduction in cell number”. The “amounts of p120 RasGAP” value with p120 RasGAP is given as “no effect”. Further, the “amounts of total ERK, total Akt, or total RalA” value in experiment [2] was “did not affect”.

The record behind these values is US20110046223A1, “TREATMENT OF NEUROFIBROMATOSIS” (RAMOT AT TEL-AVIV UNIVERSITY LTD., priority 2006, published 2011).
